Columns and labels:
Type in all cases: functional
Saccharomyces cerevisiae [1] = assay: (§1) MMV: Growth assays were conducted using the prototrophic S. cerevisiae strain JHY222. Each MMV compound (0.1 mM) was tested in rich media containing dextrose as a carbon source (Yeast Extract, Peptone, Dextrose; YPD). The growth rate in the presence of each MMV compound was calculated as follows: (i) the first 10 OD readings were averaged and subtracted from all OD readings of the corresponding curve to set the baseline of the growth curve to zero, and (ii) the area under the curve (AUC) was then calculated as the sum of all OD readings. […] A relative growth value was calculated as follows: AUC(DRUG) - AUC(DMSO)/AUC(DMSO); where AUC(DMSO) represents growth measured in a DMSO control well that was on the same microtiter plate of the drug-treated culture.
Saccharomyces cerevisiae [2] = assay: as §1, with “minimal” for “rich”, “Nitrogen Base,” for “Extract, Peptone,”, “YNBD).” for “YPD).”
Saccharomyces cerevisiae [3] = assay: as §1, with “minimal” for “rich”, “ethanol and glycerol” for “dextrose”, “as” for “as a”, “sources” for “source”, “Nitrogen Base, Ethanol, Glycerol; YNBEG).” for “Extract, Peptone, Dextrose; YPD).”

| SMILES | Relative Growth (Saccharomyces cerevisiae [1]) | Relative Growth (Saccharomyces cerevisiae [2]) | Relative Growth (Saccharomyces cerevisiae [3]) |
| --- | --- | --- | --- |
| COc1ccc(C2c3ccc4ccccc4c3Oc3ncn(CCCN(C)C)c(=N)c32)cc1 (stereo unspecified) | -0.012 | -0.0503 | -0.0587 |
| COc1ccc(/C=C2/SC(=Nc3ccccc3)NC2=O)cc1 | -0.1491 | -0.223 | -0.9641 |
| CCOC(=O)c1c(C)n(-c2ccccc2)c2ccc(OC(=O)c3cc(OC)c(OC)c(OC)c3)cc12 | -0.0253 | -0.0133 | -0.2171 |
| COc1ccc(CCN2C(=O)c3[nH]nc(-c4cc(Cl)c(C)cc4O)c3C2c2ccccc2F)cc1 (stereo unspecified) | -0.0103 | -0.1352 | -0.023 |
| O=C(NNc1cc(N2CCCC2)nc(N2CCCC2)n1)c1ccccc1 | -0.9952 | 0.0342 | -0.0043 |
| CN(N=O)C1=C(NC2CCCCC2)C(=O)c2ccccc2C1=O | -0.04 | -0.0674 | -0.7745 |
| OC1=C2C(=Nc3ccccc3SC2c2ccccc2)c2ccccc21 (stereo unspecified) | -0.0053 | -0.1585 | -0.0669 |
| CCCCCCc1cc2cc(-c3csc(C=Cc4ccccc4)n3)c(=O)oc2cc1O | -0.0646 | -0.058 | -0.0651 |
| Oc1ccc(-c2nc(-c3ccc4oc5ccc(-c6[nH]c(-c7ccc(O)cc7)nc6-c6ccccc6)cc5c4c3)c(-c3ccccc3)[nH]2)cc1 | -0.979 | 0.0106 | -0.1734 |
| COc1ccc(-c2cn3c(C(=O)Nc4ccccc4Cl)c(-c4ccccc4)c4c3n2CCCC4)cc1 | -0.0135 | 0.0523 | -0.235 |
| COc1ccc(C=C2SC(Nc3ccc(F)cc3)=NC2=O)c(OC)c1 | -0.0657 | -0.7691 | -0.8081 |
| Nc1ccc(-c2nc3cc(Oc4ccc(Oc5ccc6[nH]c(-c7ccc(N)cc7)nc6c5)cc4)ccc3[nH]2)cc1 | -0.9892 | 0.0002 | -0.1502 |
| CCOC(=O)c1cnc2ccc(OC)cc2c1Nc1ccc(N2CCN(C)CC2)cc1 | -0.0196 | 0.0562 | -0.1675 |
| COc1ccc(C(=O)C(CCC(CNC(C)(C)C)C(=O)c2ccc(OC)cc2)CNC(C)(C)C)cc1 (stereo unspecified) | -0.0341 | -0.0754 | -0.4347 |
| CCOc1cc2c(cc1OCC)C(c1cc(Cl)ccc1O)NCC2 (stereo unspecified) | -0.0098 | 0.0319 | -0.522 |
| COc1cc(-c2nc(-c3ccccc3)c(-c3ccccc3)[nH]2)cc(OC)c1O | -0.0158 | 0.0542 | -0.1558 |
| OC(CNC1CCCCC1)Cn1c2ccc(I)cc2c2cc(I)ccc21 (stereo unspecified) | 0.0125 | 0.4002 | -0.0994 |
| c1ccc(CNc2nc(Nc3ccccc3)nc3ccccc23)cc1 | -0.0158 | -0.1327 | -0.0499 |
| Oc1ccc(Br)cc1CN1CCN(Cc2ccc(Cl)cc2)CC1 | 0.004 | -0.144 | -0.4008 |
| COc1cc2c3cc1Oc1c(OC)c(OC)cc4c1C(Cc1ccc(O)c(c1)Oc1ccc(cc1)CC3N(C)CC2)N(C)CC4.Cl (stereo unspecified) | -0.0961 | 0.0109 | -0.1414 |
| CC1CC2=C(CC1CNCCCN(C)C)C(C)(C)CCC2 (stereo unspecified) | 0.0011 | 0.0086 | -0.1687 |
| CCCn1c(=N)c(C(=O)NC2CCCCC2)cc2c(=O)n3cccc(C)c3nc21 | -0.0177 | 0.1028 | 0.0799 |

Reference: ChEMBL document CHEMBL3301546, “MMV Malaria Box yeast growth screening”
